Laboratory results as given in patent US20090054376A1, “BENZOFURAN DERIVATIVES WITH THERAPEUTIC ACTIVITIES” (Pharmos Corporation, priority 2005, published 2009).
“Also recorded” adds a separate entry of the source. Read-outs that look alike come from different tables or passages of the source.

How the values were obtained:
IL-1β = assay: Cytokine secretion into blood circulation in LPS injected mice, IL-1β; assay type: in vivo, Balb/C female mice; conditions: 2 mg/kg i.v., LPS 3 mg/kg i.p., plasma 90 minutes after LPS
Protocol: (§1) Balb/C female mice (average body weight 20 g, Harlan, Israel) were injected i.v. at a volume dosage of 5 ml/kg with either vehicle or test compounds at a dose of 2 mg/kg. Each treatment group comprised at least 9 animals. Immediately after compound or control administration, the mice were injected i.p. with 3 mg/kg LPS (E. coli 055:B5, Calbiochem). Ninety minutes after LPS induction, blood samples were collected into heparanized test tubes. Plasma was separated by centrifugation (10,000 rpm for 5 minutes at RT) and stored at −20° C. until assayed. The level of the inflammatory mediator under study, IL-1β, IL-6, IL-10 or TNF-α, was assayed by ELISA techniques.
(§2) The technique used to quantify the amount of a given protein in a liquid sample, either tissue culture supernatant or body fluid, is based on Enzyme Linked ImmunoSorbent Assay (ELISA) methodology. Either commercially available or established in house, the assay is based on the capture of the protein of interest by specific antibodies bound to the bottom of an ELISA plate well. Unbound material is washed away, the captured protein is then exposed to a secondary antibody generally labeled with horseradish peroxidase (HRP) or alkaline phosphatase (ALP). Again the unbound material is washed away, and the samples are then incubated with the appropriate substrate yielding a colorimetric reaction. The reaction is stopped and reading is performed in a spectrophotometer at the appropriate wavelength. Samples are tested at least in duplicate and the appropriate standard curve, consisting of serial dilutions of the recombinant target protein, is incorporated on each plate. The concentration of the protein in the sample is calculated from the standard curve.
(§3) The results are expressed as percent inhibition of secretion, taking into account the maximal cytokine concentration in vehicle “treated” animals and the baseline level in naïve animals. […] Inhibition above 50% was considered highly significant.

IL-6 = assay: Cytokine secretion into blood circulation in LPS injected mice, IL-6; assay type: in vivo, Balb/C female mice; conditions: 2 mg/kg i.v., LPS 3 mg/kg i.p., plasma 90 minutes after LPS
Protocol: as §1, §2, §3

IL-10 = assay: Cytokine secretion into blood circulation in LPS injected mice, IL-10; assay type: in vivo, Balb/C female mice; conditions: 2 mg/kg i.v., LPS 3 mg/kg i.p., plasma 90 minutes after LPS
Protocol: as §1, §2, §3

TNF-α = assay: Cytokine secretion into blood circulation in LPS injected mice, TNF-α; assay type: in vivo, Balb/C female mice; conditions: 2 mg/kg i.v., LPS 3 mg/kg i.p., plasma 90 minutes after LPS
Protocol: as §1, §2, §3

[1] = tested on: visceral pain writhing responses; assay: Visceral pain, acetic acid induced writhing responses; assay type: in vivo, Male ICR mice; conditions: single dose 2 mg/kg i.v., compared to untreated group
[2] = tested on: carrageenan induced inflammatory pain and paw edema; assay: Inflammatory pain and paw edema induced by carrageenan; assay type: in vivo, Male Sprague Dawley rats; conditions: 10 mg/kg i.p.; for inhibition in vivo at 10 mg/kg: Rattus norvegicus, ip
How it was run: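 Male Sprague Dawley rats (~200 g) received 0.1 ml 2% λ-carrageenan subplantar in the right paw; compounds given i.p. at 3, 10 or 20 mg/kg (some p.o.) immediately after. Thermal (Hargreaves) latency, mechanical threshold, paw thickness and volume measured at 0 and 3 h; values are inter-paw differences ([…], ΔForce), volume as % of vehicle.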

[3] = tested on: CB1 related cannabimimetic activity; assay: Safety: body temperature, catalepsy, spontaneous locomotor activity, elevated plus maze, sensitivity to touch; assay type: in vivo, ICR male mice; conditions: 2 mg/kg i.v.
Protocol: In the present study, impact of compounds of the invention on the central nervous system was measured by monitoring the body temperature, catalepsy and spontaneous locomotor activity of rodents. These activities are part of the Tetrad assays which are indicative, if all parameters are affected, of CB1 mediated activity. In addition, lack of CNS psychomimetic effect was assessed in the elevated plus maze model. Finally, sensitivity to touch was determined in order to evaluate peripheral CB1 related activity.
ICR male mice (average body weight 25 g, Harlan, Israel) were administered the compounds of the invention i.v. at a dose of 2 mg/kg and at a volume dose of 5 ml/kg. The psychoactive cannabinoid HU-210 was used as positive control at the 100-fold lower dose of 0.02 mg/kg i.v. The following measurements were made starting 15 minutes after compound administration. All tests were completed for each animal within approximately 10 minutes. Rectal temperature was monitored using a thermistor probe (YSI model 400, USA). Spontaneous locomotion was assessed using the open field methodology. The number of squares crossed by the animals were recorded and analyzed during a period of three minutes. At the end of the open field test, the animals were tested for catalepsy symptoms. This was carried out by gently forcing the animal to stand on its hind paws when its front paws are holding on an elevated beam. The time for the animal to step down of the beam was measured in seconds. A normal animal withdraws the beam immediately whereas cataleptic animal tend to stay on the beam. The longer the animal stays leaning on the beam, the more cataleptic the animal is. The behavior of the animals was then assessed in the elevated plus maze. The elevated plus maze consists of two open arms and two arms that are enclosed by high walls (arms 30×10 cm, wall height 20 cm). The elevated plus maze is usually elevated 80 cm above the floor. The mouse is placed on the maze head facing an open arm, and the time spent in the different compartments of the maze (open arms, closed arms and central area) are measured for the next 5 minutes. Results are expressed as percent of the time spent in the open arms, normal animals preferring to stay in the closed arms of the maze. Finally, animals were gently touched by an observer blinded for the treatment group and their sensitivity scored according to the following scale: 0 not sensitive, 1 sensitive and 2 highly sensitive. Results are expressed as average±SEM. At the end of the study, the animals were euthanized.

[4] = 10 mg/kg i.v.; cited from earlier work
[5] = tested on: pentobarbital-induced sleep; conditions: 10 mg/kg i.v.; cited from earlier work
[6] = tested on: visceral pain writhing responses; assay: Tolerance: repeated administration in the model of Visceral Pain; assay type: in vivo, mice; conditions: tested day 11 at 2 mg/kg i.v.
Protocol: Male ICR mice (average body weight 25 g, Harlan, Israel) were pretreated by i.v. injection at volume dose of 5 ml/kg of vehicle, control and test compounds at various doses. Other routes of administration were tested for selected compounds including i.m. or s.c. injections at volume dose of 2.5 ml/kg and p.o. gavage at volume dose of 5 ml/kg. Compounds were dissolved in CREMOPHOR®:Ethanol and diluted 1:20 in saline prior to injection or gavage. Compounds administered i.v. were injected fifteen minutes before pain induction, whereas compounds administered i.m., s.c. or p.o. were supplied thirty minutes before pain induction, unless otherwise indicated. Each treatment group, except for controls comprising at least 30 animals, was composed of at least 6 animals. Fifteen or thirty minutes after drug administration, depending on the route of administration, the mice were injected i.p. with 10 ml/kg of 0.6% acetic acid and the number of visceral pain related behaviors (writhing movements globally defined as WR, i.e. stretching, contractions of the abdomen accompanied by an elongation of the body and extension of the hind limbs) was counted over a period of 5 minutes, starting 5 minutes after the acetic acid administration. These visceral pain related behaviors were globally defined as writhing responses (WR). The results are expressed as mean number of writhing responses ±SEM. Data were analyzed using analysis of variance (ANOVA) followed by post-hoc Fisher test.
Briefly compounds of the invention were administered at 10 mg/kg i.p. daily for 10 days and their analgesic activity was tested on day 11 as described in Example 17 (namely at 2 mg/kg i.v.). […] Each treatment group comprised 10 animals.

## CCCCCCC(C)(C)c1cc(O)c2c(c1)OC1C(O)CCCC21 (stereo not shown) [Compound C6S-5, 3-(1,1-Dimethylheptyl)-5a,6,7,8,9,9a-hexahydro-dibenzofuran-1,6-diol]
IL-1β
  Inhibition of cytokine secretion into blood circulation, IL-1β: NO (NO indicates that the compound tested did not significantly affect the level of cytokine in plasma of LPS injected mice and that its activity is comparable to vehicle, within ±20% from this control)
IL-6
  Inhibition of cytokine secretion into blood circulation, IL-6: 85%
IL-10
  Inhibition of cytokine secretion into blood circulation, IL-10: 84%
TNF-α
  Inhibition of cytokine secretion into blood circulation, TNF-α: NO (NO indicates that the compound tested did not significantly affect the level of cytokine in plasma of LPS injected mice and that its activity is comparable to vehicle, within ±20% from this control)
[1]; Mus musculus, iv, read-out: Percent Inhibition of Visceral Pain Writhing Responses
  inhibition in vivo at 2 mg/kg: 35%
[2]; 3 hours after carrageenan, reduction in paw swelling, read-out: Percent Inhibition of Inflammatory Pain Responses, Edema
  inhibition in vivo at 10 mg/kg: 56%
[2]; 3 hours, mechanical stimulus, read-out: Percent Inhibition of Inflammatory Pain Responses, ΔForce
  inhibition in vivo at 10 mg/kg: 34%
[2]; 3 hours, thermal stimulus, read-out: Percent Inhibition of Inflammatory Pain Responses, ΔLT
  inhibition in vivo at 10 mg/kg: 61%
[3]
  adverse cannabimimetic activities in any of the parameters monitored: None

## C=C(C)[C@@H]1CC[C@](C)(O)[C@H]2Oc3cc(CCCCC)cc(O)c3[C@@H]12 [CBE]
[4]
  effect on body temperature of mice: does not affect body temperature of mice
[5]
  prolongation of pentobarbital-induced sleep: nor does it prolong pentobarbital-induced sleep

## CCCCCCC(C)(C)c1cc(O)c2c(c1)OC1CCCCCC21 (stereo not drawn) [Compound C7S-1, 2-(1,1-dimethylheptyl)-5,6,7,8,9,9a-hexahydro-4bH-10-oxa-benzo[α]azulen-4-ol]
IL-1β
  Inhibition of cytokine secretion into blood circulation, IL-1β: NO (NO indicates that the compound tested did not significantly affect the level of cytokine in plasma of LPS injected mice and that its activity is comparable to vehicle, within ±20% from this control)
IL-6
  Inhibition of cytokine secretion into blood circulation, IL-6: 82%
IL-10
  Inhibition of cytokine secretion into blood circulation, IL-10: 82%
TNF-α
  Inhibition of cytokine secretion into blood circulation, TNF-α: NO (NO indicates that the compound tested did not significantly affect the level of cytokine in plasma of LPS injected mice and that its activity is comparable to vehicle, within ±20% from this control)
[1]
  Percent Inhibition of Visceral Pain Writhing Responses: 76%
[2]; 3 hours after carrageenan, reduction in paw swelling
  Percent Inhibition of Inflammatory Pain Responses, Edema: 60%
[2]; 3 hours, mechanical stimulus
  Percent Inhibition of Inflammatory Pain Responses, ΔForce: 13%
[2]; 3 hours, thermal stimulus
  Percent Inhibition of Inflammatory Pain Responses, ΔLT: 0%
[3]
  adverse cannabimimetic activities in any of the parameters monitored: None
[3]; non-significant
  decrease of rectal temperature: about 1.2 °C
[3]; vehicle 38.88±0.11° C.
  rectal temperature: 37.45±0.39 °C

## CN1CC[C@]23c4c5ccc(O)c4O[C@H]2[C@@H](O)C=C[C@H]3[C@H]1C5 [morphine, reference compound]
[1]; 2 mg/kg
  Percent Inhibition of Visceral Pain Writhing Responses: eradicated the pain response; also recorded: totally eliminated the pain response
[6]; repeated administration daily for 10 days (10 mg/kg i.p.), vehicle 29.75±1.09
  writhing responses on day 11: 9.60±2.85
[6]; repeated administration daily for 10 days
  reduction in pain response after repeated administration: 68%
